Data reported in patent US20090324515A1, “ANTIMICROBIAL FLAVOURING COMPOSITION” (priority 2006, published 2009).
≈ marks a conversion by molar mass, not a printed value.

Experiments:
[1] = test system: Porphyromonas gingivalis DSM 20709; assay: Determination of minimum inhibitory concentration (microdilution assay); conditions: for MIC: Porphyromonas gingivalis, DSM20709, 72 h, read-out: MIC Porphyromonas gingivalis
[2] = test system: Streptococcus mutans DSM 6178; assay: as above; conditions: for MIC: Streptococcus mutans, DSM6178, 24 h, read-out: MIC Streptococcus mutans
[3] = test system: Fusobacterium nucleatum DSM 20482; assay: as above; conditions: for MIC: Fusobacterium nucleatum, DSM20482, 72 h, read-out: MIC Fusobacterium nucleatum
[4] = test system: Prevotella melaninogenica; assay: as above; conditions: 72 h, read-out: MIC Prevotella melaninogenica
Streptococcus sp. = conditions: Amicbase; cited from earlier work
[5] = test system: Mycobacterium tuberculosis subsp. tuberculosis; conditions: Amicbase; cited from earlier work
Pseudomonas aeruginosa = conditions: Amicbase; cited from earlier work
Staphylococcus aureus = conditions: Amicbase; cited from earlier work
Eschericia coli = conditions: Amicbase; cited from earlier work
Proteus mirabilis = conditions: Amicbase; cited from earlier work
[6] = 72 h, 37° C., anaerobic, without CO2, average of 3 MIC values

| Structure (SMILES) | MIC [1] [µg/mL] | MIC [2] [µg/mL] | MIC [3] [µg/mL] | other results |
| --- | --- | --- | --- | --- |
| CCCCC(C)C(=O)O (centres unmarked) [2-Methylhexanoic acid, 2-methylhexanoic acid] | 1300 (≈ 9.99 mM) | ≤ 150 | 500 (≈ 3.84 mM) | MIC [4]: 1500 µg/mL (≈ 11.5 mM) |
| CC(=O)C1=C(C)[C@@H]2C[C@@]3(C1)[C@H](C)CC[C@H]3C2(C)C [Acetyl cedrene, acetyl cedrene] | – | – | – | MIC Porphyromonas gingivalis [1, 6]: 150 or less ppm; MIC Streptococcus mutans ([2]; 24 h, 37° C., anaerobic, with CO2, average of 3 MIC values): 250 ppm; MIC Fusobacterium nucleatum [3, 6]: 500 ppm |
| COC(=O)c1c(C)cc(O)c(C)c1O [Methylatrarate, methyl-2,4-dihydroxy-3,6-dimethyl-benzoate] | ≤ 150 | 1000 (≈ 5.1 mM) | ≤ 150 | – |
| O=C/C=C/c1ccccc1 [Cinnamic aldehyde, cinnamic aldehyde] | ≤ 150 | 250 (≈ 1.89 mM) | 500 (≈ 3.78 mM) | – |
| CC1=CCC(CCC(C)CO)C1(C)C (centres unmarked) [Brahmanol, 2-methyl-4-(2,2,3-trimethyl-3-cyclopenten-1-yl)-1-butanol] | ≤ 150 | 250 (≈ 1.27 mM) | 250 (≈ 1.27 mM) | – |
| O=C1CCCCCCCCCCCCCC1 [Cyclopenta-decanone, cyclopentadecanone] | ≤ 150 | 1000 (≈ 4.46 mM) | 1000 (≈ 4.46 mM) | – |
| Cc1ccc(O)cc1C [3,4-dimethylphenol] | ≤ 150 | ≤ 150 | 500 (≈ 4.09 mM) | MIC (Streptococcus sp.): 2000 ppm; MIC [5]: 20 ppm; MIC (Pseudomonas aeruginosa): 4000 ppm; MIC (Staphylococcus aureus): 2000 ppm; MIC [4]: 590 µg/mL (≈ 4.83 mM); MIC (Eschericia coli): 4000 ppm; MIC (Proteus mirabilis): 4000 ppm |
